Experimental data reported in patent US11584714B2 (priority 2018, dated 2023).
Where a name gives a salt, the structure may show the parent alone. Read-outs that look alike come from different tables or passages of the source.

Assays:
Type in all cases: biochemical
[1] = target: MASP-2 (CCP1-CCP2-SP) (Homo sapiens (Human), UniProt O00187); test: biochemical
[2] = target: mMASP-2 (Mus musculus (Mouse), UniProt Q91WP0); test: Enzymatic inhibition of mMASP-2; details: read-out: mMASP-2 Ki
[3] = target: human α-thrombin (Homo sapiens (Human), UniProt P00734); test: Enzymatic assay for thrombin (Boc-VPR-AMC substrate)
[4] = selectivity for MASP-2 inhibition versus thrombin
[5] = MASP-2 inhibition versus thrombin

Sequence of MASP-2 (CCP1-CCP2-SP) (O00187 445-686): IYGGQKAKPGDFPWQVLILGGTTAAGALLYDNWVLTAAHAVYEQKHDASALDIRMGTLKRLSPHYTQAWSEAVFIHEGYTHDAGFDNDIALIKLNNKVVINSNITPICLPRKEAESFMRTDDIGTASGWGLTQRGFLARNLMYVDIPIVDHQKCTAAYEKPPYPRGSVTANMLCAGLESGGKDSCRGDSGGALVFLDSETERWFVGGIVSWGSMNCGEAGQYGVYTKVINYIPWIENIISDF
Sequence of mMASP-2 (Q91WP0 20-685): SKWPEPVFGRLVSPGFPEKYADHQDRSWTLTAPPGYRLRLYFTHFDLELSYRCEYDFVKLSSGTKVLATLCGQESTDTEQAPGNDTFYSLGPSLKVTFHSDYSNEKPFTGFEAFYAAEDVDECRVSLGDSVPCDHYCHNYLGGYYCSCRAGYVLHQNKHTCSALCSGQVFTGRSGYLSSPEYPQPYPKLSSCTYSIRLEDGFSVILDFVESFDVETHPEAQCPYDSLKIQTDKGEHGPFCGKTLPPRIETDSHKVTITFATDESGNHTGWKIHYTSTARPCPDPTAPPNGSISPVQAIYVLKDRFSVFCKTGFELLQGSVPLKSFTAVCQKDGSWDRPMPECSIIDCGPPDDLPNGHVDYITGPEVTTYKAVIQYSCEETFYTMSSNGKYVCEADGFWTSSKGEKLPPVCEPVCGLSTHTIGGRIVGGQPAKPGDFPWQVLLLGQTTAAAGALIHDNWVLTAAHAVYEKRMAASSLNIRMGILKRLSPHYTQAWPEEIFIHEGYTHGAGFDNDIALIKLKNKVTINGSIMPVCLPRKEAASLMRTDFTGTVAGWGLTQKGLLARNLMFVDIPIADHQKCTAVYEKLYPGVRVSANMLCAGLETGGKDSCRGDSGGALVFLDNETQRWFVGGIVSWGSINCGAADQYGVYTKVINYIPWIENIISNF

| Compound | Ki ([1]; read-out: MASP-2 Ki) | MASP-2 vs. thrombin selectivity [1, 4] | Ki [2] | Ki ([3]; read-out: Thrombin Ki) | Ki [1] | Ki ([3]; Thrombin Ki (μM)) | MASP-2 vs. thrombin selectivity [1, 5] |
| --- | --- | --- | --- | --- | --- | --- | --- |
| Cc1cccc([C@@H]2CCN[C@@H](C(=O)N[C@@H](C)C(=O)NCc3ccc(C(=N)N)cc3)C2)c1 [compound 1241, (2R,4R)—N—((S)-1-((4-Carbamimidoylbenzyl)amino)-1-oxopropan-2-yl)-4-(m-tolyl)piperidine-2-carboxamide] | < 0.5 µM | * (≥1.0 to <5.0-fold) | < 0.5 µM | < 0.5 µM | – | – | – |
| CC(=O)Nc1ccc(Cl)cc1CNC(=O)[C@H](C)NC(=O)[C@H]1C[C@H](c2ccccc2)CN1 [compound 1269, (2R,4R)—N—((S)-1-((2-Acetamido-5-chlorobenzyl)amino)-1-oxopropan-2-yl)-4-phenylpyrrolidine-2-carboxamide] | – | ** (≥5.0 to <25-fold) | 10 to 25 µM | > 25 µM | 0.5 to 2.5 µM | – | – |
| Cc1cc(C[C@@H]2CN[C@@H](C(=O)N[C@@H](C)C(=O)NCc3ccc(N)nc3C)C2)ccn1 [compound 1469, (2R,4S)—N—((S)-1-(((6-Amino-2-methylpyridin-3-yl)methyl)amino)-1-oxopropan-2-yl)-4-((2-methylpyridin-4-yl)methyl)pyrrolidine-2-carboxamide Dihydrochloride] | < 0.5 µM | **** (≥100-fold) | < 0.5 µM | – | – | 2.5 to 10 µM | – |
| C[C@H](NC(=O)[C@H]1C[C@H](c2ccccc2)CN1)C(=O)NCc1cc(Cl)c2[nH]cnc2c1 [compound 1417, (2R,4R)—N—((S)-1-(((7-Chloro-1H-benzo[d]imidazol-5-yl)methyl)amino)-1-oxopropan-2-yl)-4-phenylpyrrolidine-2-carboxamide Trifluoroacetate salt] | – | – | 2.5 to 10 µM | > 25 µM | 0.5 to 2.5 µM | – | – |
| C[C@H](NC(=O)[C@H]1C[C@H](Cc2ccc(-c3ccccc3)cc2)CN1)C(=O)NCc1cnc2[nH]cc(Cl)c2c1 [compound 1356, (2R,4S)-4-([1,1′-Biphenyl]-4-ylmethyl)-N-((S)-1-(((3-chloro-1H-pyrrolo[2,3-b]pyridin-5-yl)methyl)amino)-1-oxopropan-2-yl)pyrrolidine-2-carboxamide Di-trifluoroacetate salt] | < 0.5 µM | **** (≥100-fold) | < 0.5 µM | > 25 µM | – | – | – |
| C[C@H](NC(=O)[C@@H](CCc1ccccc1)NCc1ccc(N2CCN(S(C)(=O)=O)CC2)cc1)C(=O)NCc1ccc(C(=N)N)cc1 [compound 1250, (R)—N—((S)-1-((4-Carbamimidoylbenzyl)amino)-1-oxopropan-2-yl)-2-((4-(4-(methylsulfonyl)piperazin-1-yl)benzyl)amino)-4-phenylbutanamide] | < 0.5 µM | * (≥1.0 to <5.0-fold) | < 0.5 µM | < 0.5 µM | – | – | – |
| CCCCCN[C@H](CCc1ccccc1)C(=O)N[C@@H](C)C(=O)NCc1ccc(N)nc1C [compound 1377, (R)—N—((S)-1-(((6-Amino-2-methylpyridin-3-yl)methyl)amino)-1-oxopropan-2-yl)-2-(pentylamino)-4-phenylbutanamide Di-trifluoroacetate salt] | – | ** (≥5.0 to <25-fold) | > 25 µM | – | 0.5 to 2.5 µM | 10 to 25 µM | – |
| Cc1nc(N)ccc1CNC(=O)[C@H](C)NC(=O)[C@H]1C[C@H](Cc2ccc3ccccc3c2)CN1 [compound 1338, (2R,4S)—N—((S)-1-(((6-Amino-2-methylpyridin-3-yl)methyl)amino)-1-oxopropan-2-yl)-4-(naphthalen-2-ylmethyl)pyrrolidine-2-carboxamide Dihydrochloride] | < 0.5 µM | **** (≥100-fold) | < 0.5 µM | > 25 µM | – | – | – |
| CC(C)c1cccc([C@H]2CN[C@@H](C(=O)N[C@@H](C)C(=O)NCc3ccc(C(=N)N)cc3)C2)c1 [compound 1316, (2R,4S)—N—((S)-1-((4-Carbamimidoylbenzyl)amino)-1-oxopropan-2-yl)-4-(3-isopropylphenyl)pyrrolidine-2-carboxamide Dihydrochloride] | < 0.5 µM | *** (≥25 to <100-fold) | < 0.5 µM | – | – | 0.5 to 2.5 µM | – |
| Cc1nc(N)ccc1CNC(=O)[C@H](C)NC(=O)[C@H]1C[C@@H](C(C)c2ccccc2)CN1 (mixture of isomers) [compound 1344, (2R,4S)—N—((S)-1-(((6-Amino-2-methylpyridin-3-yl)methyl)amino)-1-oxopropan-2-yl)-4-((±)-1-phenylethyl)pyrrolidine-2-carboxamide Dihydrochloride] | < 0.5 µM | **** (≥100-fold) | < 0.5 µM | 2.5 to 10 µM | – | – | – |
| Cc1nc(N)ccc1CNC(=O)[C@H](C)NC(=O)[C@H]1C[C@H](Cc2cc(-c3ccccc3)cs2)CN1 [compound 1399, (2R,4R)—N—((S)-1-(((6-Amino-2-methylpyridin-3-yl)methyl)amino)-1-oxopropan-2-yl)-4-((4-phenylthiophen-2-yl)methyl)pyrrolidine-2-carboxamide Dihydrochloride] | < 0.5 µM | **** (≥100-fold) | < 0.5 µM | – | – | 10 to 25 µM | – |
| CC(C)COC(=O)NC(=N)c1ccc(CNC(=O)[C@H](C)NC(=O)[C@H]2C[C@H](c3ccccc3)CN2)cc1 [compound 1293, Isobutyl (imino(4-(((S)-2-((2R,4R)-4-phenylpyrrolidine-2-carboxamido)propanamido)methyl)phenyl)methyl)carbamate] | – | * (≥1.0 to <5.0-fold) | 2.5 to 10 µM | > 25 µM | 2.5 to 10 µM | – | – |
| Cc1nc(N)ccc1CNC(=O)[C@H](C)NC(=O)[C@@H](CCc1ccccc1)NCCc1cccc(O)c1 [compound 1349, (R)—N—((S)-1-(((6-Amino-2-methylpyridin-3-yl)methyl)amino)-1-oxopropan-2-yl)-2-((3-hydroxyphenethyl)amino)-4-phenylbutanamide Dihydrochloride] | – | ** (≥5.0 to <25-fold) | 2.5 to 10 µM | > 25 µM | 0.5 to 2.5 µM | – | – |
| CCN1CC[C@H](c2ccccc2)C[C@@H]1C(=O)N[C@@H](C)C(=O)NCc1ccc(N)nc1C [compound 1496, (2R,4S)—N—((S)-1-(((6-Amino-2-methylpyridin-3-yl)methyl)amino)-1-oxopropan-2-yl)-1-ethyl-4-phenylpiperidine-2-carboxamide] | < 0.5 µM | – | 0.5 to 2.5 µM | > 25 µM | – | – | – |
| C[C@H](NC(=O)[C@H]1C[C@H](c2ccccc2)CN1)C(=O)NCc1cc2c(Br)cncc2[nH]1 [compound 1493, (2R,4R)—N—((S)-1-(((4-Bromo-1H-pyrrolo[2,3-c]pyridin-2-yl)methyl)amino)-1-oxopropan-2-yl)-4-phenylpyrrolidine-2-carboxamide Di-trifluoroacetate salt] | – | * (≥1.0 to <5.0-fold) | > 25 µM | – | 10 to 25 µM | 10 to 25 µM | – |
| Cc1cnc(NCCc2ccccc2)c(=O)n1CC(=O)NCc1cc(Cl)ccc1-n1cnnn1 [compound 1489, N-(5-Chloro-2-(1H-tetrazol-1-yl)benzyl)-2-(6-methyl-2-oxo-3-(phenethylamino)pyrazin-1(2H)-yl)acetamide] | < 0.5 µM | −− (<1.0-fold) | 0.5 to 2.5 µM | < 0.5 µM | – | – | – |
| C[C@H](NC(=O)[C@H](N)C/C=C/c1ccccc1)C(=O)NCc1ccc(N)nc1 [compound 1261, (R, E)-2-Amino-N—((S)-1-(((6-aminopyridin-3-yl)methyl)amino)-1-oxopropan-2-yl)-5-phenylpent-4-enamide] | – | * (≥1.0 to <5.0-fold) | 10 to 25 µM | > 25 µM | 10 to 25 µM | – | – |
| C[C@H](NC(=O)[C@@H](CCc1ccccc1)NCCCc1cccc(O)c1)C(=O)NCc1ccc(C(=N)N)cc1 [compound 1312, (R)—N—((S)-1-((4-Carbamimidoylbenzyl)amino)-1-oxopropan-2-yl)-2-((3-(3-hydroxyphenyl)propyl)amino)-4-phenylbutanamide Di-trifluoroacetate salt] | < 0.5 µM | * (≥1.0 to <5.0-fold) | < 0.5 µM | < 0.5 µM | – | – | – |
| Cc1cc(Cl)cc(CNC(=O)[C@H](C)NC(=O)[C@H]2C[C@H](c3ccccc3)CN2)c1O [compound 1298, (2R,4R)—N—((S)-1-((5-chloro-2-hydroxy-3-methylbenzyl)amino)-1-oxopropan-2-yl)-4-phenylpyrrolidine-2-carboxamide Hydrochloride] | < 0.5 µM | – | 2.5 to 10 µM | > 25 µM | – | – | – |
| CCCCCN[C@H](CCc1ccccc1)C(=O)N[C@@H](C)C(=O)NCc1ccc(C(=N)N)cc1 [compound 1125] | < 0.5 µM | – | < 0.5 µM | < 0.5 µM | – | – | −− (less than 1.0-fold) |
| C[C@H](NC(=O)[C@H](N)CCc1cccc(F)c1)C(=O)NCc1ccc(C(=N)N)cc1 [compound 1048] | < 0.5 µM | – | < 0.5 µM | < 0.5 µM | – | – | ** (5.0 to 25-fold) |
| C[C@H](NC(=O)[C@H](N)CCc1ccccc1)C(=O)NCc1cc(Br)ccc1O [compound 1279, (R)-2-amino-N—((S)-1-((5-bromo-2-hydroxybenzyl)amino)-1-oxopropan-2-yl)-4-phenylbutanamide] | – | ** (≥5.0 to <25-fold) | > 25 µM | – | 0.5 to 2.5 µM | 2.5 to 10 µM | – |
| Cc1nc(N)ccc1CNC(=O)[C@H](C)NC(=O)[C@H]1C[C@H](Cc2ccc(F)c(Cl)c2)CN1CCC(=O)O [compound 1473, 3-((2R,4S)-2-(((S)-1-(((6-Amino-2-methylpyridin-3-yl)methyl)amino)-1-oxopropan-2-yl)carbamoyl)-4-(3-chloro-4-fluorobenzyl)pyrrolidin-1-yl)propanoic acid Trifluoroacetate salt] | < 0.5 µM | – | < 0.5 µM | > 25 µM | – | – | – |
